Source: the NIST ThermoML archive (doi:10.1021/acs.jced.8b00176)

Assay: xn = mol fraction of the nth substance listed
Conditions: 100 kPa, Liquid; for viscosity: Falling or rolling sphere viscometry; for speed of sound: Frequency=3 MHz, Single path-length method; for mass density: Vibrating tube method

CC#N [acetonitrile] + CN(C)C=O
Conditions | mass density [kg/m3] | speed of sound [m/s] | viscosity [mPa·s]
298.15 K, x2 = 0 | 776.714 | 1278.5 | 0.34
298.15 K, x2 = 0.0989 | 802.565 | 1302.5 | 0.4
298.15 K, x2 = 0.1916 | 826.376 | 1322 | 0.44
298.15 K, x2 = 0.2925 | 844.614 | 1339.6 | 0.48
298.15 K, x2 = 0.3932 | 865.725 | 1361.6 | 0.54
298.15 K, x2 = 0.5029 | 880.889 | 1377.5 | 0.61
298.15 K, x2 = 0.6002 | 895.421 | 1395.9 | 0.65
298.15 K, x2 = 0.6931 | 907.546 | 1411.4 | 0.69
298.15 K, x2 = 0.7926 | 922.026 | 1429.2 | 0.75
298.15 K, x2 = 0.8996 | 932.676 | 1442.8 | 0.79
303.15 K, x2 = 0 | 771.289 | 1258.4 | 0.32
303.15 K, x2 = 0.0989 | 797.299 | 1282.7 | 0.39
303.15 K, x2 = 0.1916 | 821.229 | 1302.3 | 0.42
303.15 K, x2 = 0.2925 | 839.435 | 1320.1 | 0.46
303.15 K, x2 = 0.3932 | 860.639 | 1342.2 | 0.51
303.15 K, x2 = 0.5029 | 875.938 | 1358.1 | 0.57
303.15 K, x2 = 0.6002 | 890.518 | 1376.6 | 0.61
303.15 K, x2 = 0.6931 | 902.756 | 1392 | 0.65
303.15 K, x2 = 0.7926 | 917.22 | 1409.9 | 0.7
303.15 K, x2 = 0.8996 | 927.901 | 1423.3 | 0.75
308.15 K, x2 = 0 | 765.833 | 1238.2 | 0.31
308.15 K, x2 = 0.0989 | 792.024 | 1262.9 | 0.37
308.15 K, x2 = 0.1916 | 816.008 | 1282.5 | 0.4
308.15 K, x2 = 0.2925 | 834.219 | 1300.5 | 0.44
308.15 K, x2 = 0.3932 | 855.56 | 1322.6 | 0.49
308.15 K, x2 = 0.5029 | 870.924 | 1338.6 | 0.54
308.15 K, x2 = 0.6002 | 885.607 | 1357.2 | 0.58
308.15 K, x2 = 0.6931 | 897.887 | 1372.6 | 0.61
308.15 K, x2 = 0.7926 | 912.402 | 1390.5 | 0.66
308.15 K, x2 = 0.8996 | 923.153 | 1404 | 0.71
313.15 K, x2 = 0 | 760.339 | 1218 | 0.3
313.15 K, x2 = 0.0989 | 786.729 | 1243 | 0.35
313.15 K, x2 = 0.1916 | 810.757 | 1262.8 | 0.39
313.15 K, x2 = 0.2925 | 829.087 | 1280.9 | 0.42
313.15 K, x2 = 0.3932 | 850.487 | 1303.2 | 0.46
313.15 K, x2 = 0.5029 | 865.854 | 1319.2 | 0.51
313.15 K, x2 = 0.6002 | 880.698 | 1337.9 | 0.55
313.15 K, x2 = 0.6931 | 893.049 | 1353.3 | 0.58
313.15 K, x2 = 0.7926 | 907.663 | 1371.3 | 0.63
313.15 K, x2 = 0.8996 | 918.366 | 1384.7 | 0.69
318.15 K, x2 = 0 | 754.815 | 1197.9 | 0.29
318.15 K, x2 = 0.0989 | 781.363 | 1223.3 | 0.33
318.15 K, x2 = 0.1916 | 805.527 | 1243.1 | 0.37
318.15 K, x2 = 0.2925 | 823.852 | 1261.3 | 0.4
318.15 K, x2 = 0.3932 | 845.354 | 1283.7 | 0.44
318.15 K, x2 = 0.5029 | 860.76 | 1299.9 | 0.49
318.15 K, x2 = 0.6002 | 875.703 | 1318.6 | 0.52
318.15 K, x2 = 0.6931 | 888.143 | 1334 | 0.55
318.15 K, x2 = 0.7926 | 902.79 | 1352.1 | 0.59
318.15 K, x2 = 0.8996 | 913.57 | 1365.5 | 0.63
323.15 K, x2 = 0 | 749.253 | 1177.8 | 0.28
323.15 K, x2 = 0.0989 | 776.028 | 1203.5 | 0.32
323.15 K, x2 = 0.1916 | 800.222 | 1223.4 | 0.35
323.15 K, x2 = 0.2925 | 818.614 | 1241.9 | 0.38
323.15 K, x2 = 0.3932 | 840.213 | 1264.4 | 0.42
323.15 K, x2 = 0.5029 | 855.738 | 1280.6 | 0.46
323.15 K, x2 = 0.6002 | 870.738 | 1299.4 | 0.5
323.15 K, x2 = 0.6931 | 883.209 | 1314.8 | 0.53
323.15 K, x2 = 0.7926 | 897.991 | 1332.9 | 0.56
323.15 K, x2 = 0.8996 | 908.741 | 1346.3 | 0.6
